Reference: the NIST ThermoML archive (doi:10.1021/acs.jced.8b00132)
Several values for one entry are separate records, joined by “and”; a condition that tells them apart may be missing. Equal entries are not always repeated. ± gives the expanded uncertainty stated by the source.

Conditions: Liquid, transient hot wire

SMILES: O=C(C(F)(F)C(F)(F)F)C(F)(C(F)(F)F)C(F)(F)F [dodecafluoro-2-methylpentan-3-one]
- thermal conductivity (242.34 K, 5849 kPa): 0.06998 ± 0.0014 W/m/K
- thermal conductivity (242.34 K, 5853 kPa): 0.06965 ± 0.0014 W/m/K
- thermal conductivity (242.35 K, 208 kPa): 0.06798 ± 0.0014 W/m/K
- thermal conductivity (242.35 K, 212 kPa): 0.06825 ± 0.0014 W/m/K
- thermal conductivity (242.58 K, 60304 kPa): 0.08223 ± 0.0017 W/m/K
- thermal conductivity (242.58 K, 60314 kPa): 0.08199 ± 0.0017 W/m/K
- thermal conductivity (242.59 K, 33710 kPa): 0.0767 ± 0.0016 W/m/K
- thermal conductivity (242.59 K, 50797 kPa): 0.08019 ± 0.0016 W/m/K
- thermal conductivity (242.59 K, 50816 kPa): 0.07983 ± 0.0016 W/m/K
- thermal conductivity (242.59 K, 68418 kPa): 0.08363 ± 0.0017 W/m/K
- thermal conductivity (242.59 K, 68434 kPa): 0.08369 ± 0.0017 W/m/K
- thermal conductivity (242.6 K, 33703 kPa): 0.07658 ± 0.0016 W/m/K
- thermal conductivity (242.6 K, 41984 kPa): 0.07877 ± 0.0016 W/m/K
- thermal conductivity (242.6 K, 41989 kPa): 0.07848 ± 0.0016 W/m/K
- thermal conductivity (242.67 K, 25698 kPa): 0.07459 ± 0.0015 W/m/K
- thermal conductivity (242.68 K, 25706 kPa): 0.07494 ± 0.0015 W/m/K
- thermal conductivity (242.77 K, 18756 kPa): 0.073 ± 0.0015 W/m/K
- thermal conductivity (242.77 K, 18761 kPa): 0.07312 ± 0.0015 W/m/K
- thermal conductivity (242.79 K, 12031 kPa): 0.07146 ± 0.0015 W/m/K
- thermal conductivity (242.8 K, 12030 kPa): 0.07148 ± 0.0015 W/m/K
- thermal conductivity (242.91 K, 5853 kPa): 0.06968 ± 0.0014 W/m/K
- thermal conductivity (242.91 K, 5856 kPa): 0.06976 ± 0.0014 W/m/K
- thermal conductivity (242.92 K, 207 kPa): 0.06801 ± 0.0014 W/m/K
- thermal conductivity (242.93 K, 208 kPa): 0.06804 ± 0.0014 W/m/K
- thermal conductivity (243.11 K, 60298 kPa): 0.08226 ± 0.0017 W/m/K
- thermal conductivity (243.11 K, 68406 kPa): 0.084 ± 0.0017 W/m/K
- thermal conductivity (243.11 K, 68416 kPa): 0.08398 ± 0.0017 W/m/K
- thermal conductivity (243.12 K, 60300 kPa): 0.082 ± 0.0017 W/m/K
- thermal conductivity (243.13 K, 50796 kPa): 0.08047 ± 0.0016 W/m/K
- thermal conductivity (243.13 K, 50797 kPa): 0.08042 ± 0.0016 W/m/K
- thermal conductivity (243.16 K, 41981 kPa): 0.07861 ± 0.0016 W/m/K
- thermal conductivity (243.16 K, 41982 kPa): 0.07868 ± 0.0016 W/m/K
- thermal conductivity (243.17 K, 33693 kPa): 0.07674 ± 0.0016 W/m/K
- thermal conductivity (243.17 K, 33696 kPa): 0.07679 ± 0.0016 W/m/K
- thermal conductivity (243.25 K, 25695 kPa): 0.07494 ± 0.0015 W/m/K
- thermal conductivity (243.26 K, 25691 kPa): 0.07494 ± 0.0015 W/m/K
- thermal conductivity (243.36 K, 18758 kPa): 0.07321 ± 0.0015 W/m/K
- thermal conductivity (243.36 K, 18761 kPa): 0.07324 ± 0.0015 W/m/K
- thermal conductivity (243.39 K, 12032 kPa): 0.07131 ± 0.0015 W/m/K
- thermal conductivity (243.41 K, 12030 kPa): 0.07139 ± 0.0015 W/m/K
- thermal conductivity (243.52 K, 5859 kPa): 0.0695 ± 0.0014 W/m/K and 0.06954 ± 0.0014 W/m/K
- thermal conductivity (243.55 K, 209 kPa): 0.06795 ± 0.0014 W/m/K
- thermal conductivity (243.56 K, 209 kPa): 0.06794 ± 0.0014 W/m/K
- thermal conductivity (243.69 K, 68395 kPa): 0.08376 ± 0.0017 W/m/K
- thermal conductivity (243.69 K, 68403 kPa): 0.08352 ± 0.0017 W/m/K
- thermal conductivity (243.7 K, 60284 kPa): 0.08212 ± 0.0017 W/m/K
- thermal conductivity (243.71 K, 60287 kPa): 0.08216 ± 0.0017 W/m/K
- thermal conductivity (243.73 K, 50783 kPa): 0.08028 ± 0.0016 W/m/K
- thermal conductivity (243.74 K, 50794 kPa): 0.08029 ± 0.0016 W/m/K
- thermal conductivity (243.77 K, 41976 kPa): 0.07861 ± 0.0016 W/m/K
- thermal conductivity (243.77 K, 41985 kPa): 0.07849 ± 0.0016 W/m/K
- thermal conductivity (243.8 K, 33690 kPa): 0.07668 ± 0.0016 W/m/K
- thermal conductivity (243.8 K, 33707 kPa): 0.07668 ± 0.0016 W/m/K
- thermal conductivity (271.75 K, 5167 kPa): 0.06405 ± 0.0013 W/m/K
- thermal conductivity (271.76 K, 5170 kPa): 0.06371 ± 0.0013 W/m/K
- thermal conductivity (271.8 K, 431 kPa): 0.06194 ± 0.0013 W/m/K
- thermal conductivity (271.81 K, 411 kPa): 0.06198 ± 0.0013 W/m/K
- thermal conductivity (271.99 K, 24357 kPa): 0.07109 ± 0.0015 W/m/K
- thermal conductivity (271.99 K, 24380 kPa): 0.07115 ± 0.0015 W/m/K
- thermal conductivity (272.01 K, 32229 kPa): 0.0734 ± 0.0015 W/m/K
- thermal conductivity (272.01 K, 32230 kPa): 0.07317 ± 0.0015 W/m/K
- thermal conductivity (272.03 K, 40370 kPa): 0.07538 ± 0.0015 W/m/K
- thermal conductivity (272.04 K, 40373 kPa): 0.07501 ± 0.0015 W/m/K
- thermal conductivity (272.04 K, 46123 kPa): 0.07637 ± 0.0016 W/m/K
- thermal conductivity (272.05 K, 11155 kPa): 0.06578 ± 0.0014 W/m/K
- thermal conductivity (272.05 K, 11165 kPa): 0.06595 ± 0.0014 W/m/K
- thermal conductivity (272.05 K, 46118 kPa): 0.07672 ± 0.0016 W/m/K
- thermal conductivity (272.06 K, 17558 kPa): 0.06827 ± 0.0014 W/m/K
- thermal conductivity (272.07 K, 17554 kPa): 0.06805 ± 0.0014 W/m/K
- thermal conductivity (272.15 K, 5158 kPa): 0.06391 ± 0.0013 W/m/K
- thermal conductivity (272.16 K, 5173 kPa): 0.06421 ± 0.0013 W/m/K
- thermal conductivity (272.21 K, 418 kPa): 0.06216 ± 0.0013 W/m/K
- thermal conductivity (272.21 K, 421 kPa): 0.06256 ± 0.0013 W/m/K
- thermal conductivity (272.49 K, 24363 kPa): 0.06931 ± 0.0014 W/m/K
- thermal conductivity (272.5 K, 32236 kPa): 0.07245 ± 0.0015 W/m/K
- thermal conductivity (272.5 K, 32238 kPa): 0.07194 ± 0.0015 W/m/K
- thermal conductivity (272.5 K, 40381 kPa): 0.07419 ± 0.0015 W/m/K
- thermal conductivity (272.51 K, 40379 kPa): 0.07408 ± 0.0015 W/m/K
- thermal conductivity (272.52 K, 46113 kPa): 0.0755 ± 0.0015 W/m/K
- thermal conductivity (272.52 K, 46119 kPa): 0.07509 ± 0.0015 W/m/K
- thermal conductivity (272.58 K, 5167 kPa): 0.06402 ± 0.0013 W/m/K
- thermal conductivity (272.58 K, 11163 kPa): 0.0662 ± 0.0014 W/m/K
- thermal conductivity (272.58 K, 17548 kPa): 0.06807 ± 0.0014 W/m/K
- thermal conductivity (272.58 K, 17564 kPa): 0.06792 ± 0.0014 W/m/K
